{
  "source": "paper PMC7922224",
  "about": "“Searching for Small Molecules as Antibacterials: Non-Cytotoxic Diarylureas Analogues of Triclocarban” (Antibiotics, 2021)",
  "origin": "cited, not measured here",
  "set-up_in_all_cases": "method as in earlier work",
  "conditions_in_all_cases": "reference antibiotic, values according to CLSI (2012) ref 26; cited from earlier work",
  "key": {"E. faecalis ATCC 29212": {"test_system": "E. faecalis ATCC 29212"}, "S. aureus ATCC 29213": {"test_system": "S. aureus ATCC 29213"}, "E. coli 25922": {"test_system": "E. coli 25922"}, "K. pneumoniae ATCC 13883": {"test_system": "K. pneumoniae ATCC 13883"}, "P. aeruginosa ATCC 27853": {"test_system": "P. aeruginosa ATCC 27853"}},
  "data": [
    {"smiles": "CCn1cc(C(=O)O)c(=O)c2cc(F)c(N3CCNCC3)cc21", "note": "[NRF, norfloxacin]", "values": [
      {"measurement": "MIC E.f. 29212", "setting": "E. faecalis ATCC 29212", "result": "2 to 8", "unit": "µg/mL"},
      {"measurement": "MIC S.a. 29213", "setting": "S. aureus ATCC 29213", "result": "0.5 to 2", "unit": "µg/mL"},
      {"measurement": "MIC E.c. 25922", "setting": "E. coli 25922", "result": "0.03 to 0.12", "unit": "µg/mL"},
      {"measurement": "MIC K.p. 13883", "setting": "K. pneumoniae ATCC 13883", "result": "0.5 to 1", "unit": "µg/mL"},
      {"measurement": "MIC P. a. 27853", "setting": "P. aeruginosa ATCC 27853", "result": "1 to 4", "unit": "µg/mL"}
    ]}
  ]
}
